Assays:
glycolate oxidase [1] = biological target: T1, glycolate oxidase (Spinacia oleracea, UniProt P05414); test: Glycolate oxidase (DCIP) assay on Pichia pastoris whole-cell biocatalyst; format: biochemical, spinach; details: racemic substrate, lactic acid is 100%; for Relative GO activity, Permeabilized: permeabilized cells; for Relative GO activity, Spray-dried: spray-dried cells
T1 construct: expressed in transfected cells; host or cells: Pichia pastoris, single recombinant (NRRL Y-21001) or double recombinant, spray-dried and/or BAC-permeabilised whole cells
T1 sequence (P05414 1-369): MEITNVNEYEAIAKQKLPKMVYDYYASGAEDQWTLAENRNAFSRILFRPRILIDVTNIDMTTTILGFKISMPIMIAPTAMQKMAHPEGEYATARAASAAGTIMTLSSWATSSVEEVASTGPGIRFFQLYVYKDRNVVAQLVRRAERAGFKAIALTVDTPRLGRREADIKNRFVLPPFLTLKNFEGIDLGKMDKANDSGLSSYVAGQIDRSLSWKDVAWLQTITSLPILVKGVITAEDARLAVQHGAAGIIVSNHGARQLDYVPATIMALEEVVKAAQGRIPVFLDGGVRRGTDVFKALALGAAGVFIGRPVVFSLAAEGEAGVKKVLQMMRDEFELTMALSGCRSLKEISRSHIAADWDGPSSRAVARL
Procedure: Glycolate Oxidase Assay • 1. Weigh approximately 40 mg spray-dried cells (record exact weight) into a 10 mL centrifuge tube. • 2. Add 8.0 mL of DCIP assay solution (0.12 mM 2,6-dichloroindophenol and 80 mM Tris, pH 8.3). A DCIP solution that is stored at 4° C. may be used for up to 2 weeks. • 3. Mix to suspend cells, then remove 50 μL of suspension (about 0.25 mg dry cells) and place in 3.0 mL quartz cuvette with flea stirrer. Add 2.0 mL of DCIP assay solution. Cap with septum and bubble with nitrogen for 3 minutes. • 4. […]
In initial work (in the absence of spray-drying), after fermentation, cells were recovered by solid/liquid separation, and benzalkonium chloride (BAC) detergent was used to permeabilize cells for the enzyme reaction. […] Thus, another experiment (see below) compared spray-dried cells to several other methods of cell preparation: a) not spray-dried and not BAC treated, b) not spray-dried and treated with BAC, and c) spray-dried and treated with BAC. The spray-dried cells were treated with BAC after spray-drying to determine if spray-drying completely permeabilized the cells.
Detergent Cell Permeabilization • 1. Prepare mixture of 10 weight % cells/volume 50 mM phosphate buffer (pH 7.0) at room temperature. Add 0.1% (w/v) benzalkonium chloride. • 2. Stir or mix slowly for 60 minutes at room temperature, 25° C. • 3. Centrifuge (9950×g for 10 minutes at 5° C.), decant, and re-suspend cells three times (10% w/v) in 50 mM phosphate buffer (pH 7.0) at 5° C., centrifuge, decant. • 4. Permeabilized cells may be used immediately or stored up to one year at −80° C. prior to use.

glycolate oxidase [2] = details: 100 mM; enzyme extracted from tobacco leaves; cited from earlier work

Relative GO activity, Permeabilized (glycolate oxidase [1])	Relative GO activity, Spray-dried (glycolate oxidase [1])	Molecule	Effect on the catalytic action of glycolate oxidase (glycolate oxidase [2])
3%	3%	O=C(O)C(O)c1ccccc1 (racemic) [Mandelic acid]	
1%	2%	CC(C)C(O)C(=O)O (racemic) [2-Hydroxy-3-methylbutyric acid]	
18%	26%	O=C(O)C(O)Cc1c[nH]c2ccccc12 (racemic) [3-Indolelactic acid]	
100%	121%	O=C(O)C(O)CCl (racemic) [β-Chlorolactic acid]	
25%	37%	O=C(O)C(O)Cc1ccccc1 (racemic) [3-Phenyllactic acid]	
91%	129%	CCC(O)C(=O)O (racemic) [2-Hydroxybutyric acid]	
90%	94%	O=C(O)CO [Glycolic acid]	
26%	38%	O=C(O)C(O)Cc1ccc(O)cc1 (centres unmarked) [p-Hydroxyphenyllactic acid]	
		O=C(O)C(=O)O [Oxalic acid]	inhibit
11%	2%	Trifluorolactic acid	
100%	100%	CC(O)C(=O)O (racemic) [Lactic acid]	
40%	49%	CCCCCCCCC(O)C(=O)O (racemic) [2-Hydroxydecanoic acid]	

From patent publication US8940510B2, “Spray dried microbes and methods of preparation and use” (University of Iowa Research Foundation, priority 2007, dated 2015)
